# According to ChEMBL document CHEMBL5500423, “More than an Amide Bioisostere: Discovery of 1,2,4-Triazole-containing Pyrazolo[1,5-a]pyrimidine Host CSNK2 Inhibitors for Combatting β-Coronavirus Replication” (J Med Chem, 2024):
# Experiments:
# [1] = Kinetic solubility of compound in PBS at pH 7.4 incubated for 24 hrs by HPLC analysis; type: physicochemical; conditions: buffer, pH 7.4, 24 h
# Murine hepatitis virus = test: Antiviral activity against Murine hepatitis virus infected in mouse DBT cells preincubated with cells for 1 hrs followed by viral infection and measured after 10 hrs by luminometer; type: functional, organism-based; conditions: Murine coronavirus
# [2] = target: Casein kinase II subunit alpha' (Homo sapiens, UniProt P19784); test: Inhibition of NLuc-fused CSNK2A2 (unknown origin) expressed in HEK293 cells incubated for 2 hrs by NanoBRET assay; type: cell-based
# [3] = Cytotoxicity against human A549-ACE2 cells assessed as cell viability at 1 uM incubated for 48 hrs by CellTiter-Glo2 assay relative to control; type: toxicity, cell-based; conditions: a549-ace2, 48 h
# [4] = Cytotoxicity against human A549-ACE2 cells assessed as cell viability at 0.1 uM incubated for 48 hrs by CellTiter-Glo2 assay relative to control; type: toxicity, cell-based; conditions: a549-ace2, 48 h
# Casein kinase II subunit alpha', sequence (P19784 whole entry, the tested form may be a part): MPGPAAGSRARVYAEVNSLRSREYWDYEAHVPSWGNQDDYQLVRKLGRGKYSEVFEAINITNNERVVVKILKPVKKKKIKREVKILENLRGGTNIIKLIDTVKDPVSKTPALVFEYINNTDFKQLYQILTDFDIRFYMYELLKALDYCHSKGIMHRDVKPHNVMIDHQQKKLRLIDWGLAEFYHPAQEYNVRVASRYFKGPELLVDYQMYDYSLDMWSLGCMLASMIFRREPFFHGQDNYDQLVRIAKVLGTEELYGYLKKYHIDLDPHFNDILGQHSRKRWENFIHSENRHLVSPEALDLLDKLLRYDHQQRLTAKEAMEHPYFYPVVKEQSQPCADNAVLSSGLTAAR
Kinetic_solubility [1] [µg/mL],IC50 (Murine hepatitis virus) [nM],IC50 [2] [nM],Structure (SMILES),Activity [3] [%],Activity [4] [%]
3.1,794,79.4,Cn1cnc(Nc2cc(Nc3cccc(-n4cnnc4)c3)nc3c(C#N)cnn23)c1,,
,7940,631,CCNCCN(C)c1ccc(Nc2cc(NC3CC3)n3ncc(C#N)c3n2)cc1-n1cnnc1,,
,5010,> 10000,N#Cc1cnn2c(NCC3CCOC3)cc(Nc3cccc(-n4cnnc4)c3)nc12 (stereo not given),,
2.6,2510,63.1,CN(CCO)c1cc(F)c(Nc2cc(NC3CC3)n3ncc(C#N)c3n2)cc1-n1cnnc1,,
35,1580,25.1,N#Cc1cnn2c(Nc3ccn(CCN4CCCC4)n3)cc(Nc3cccc(-n4cnnc4)c3)nc12,,
8.4,> 10000,1580,CNCCn1cnc(Nc2cc(Nc3cccc(-n4cnnc4)c3)nc3c(C#N)cnn23)c1,,
,> 10000,> 10000,N#Cc1cnn2c(NCC3CCOCC3)cc(Nc3cccc(-n4cnnc4)c3)nc12,,
1.1,126,,N#Cc1cnn2c(NC3CC3)cc(Nc3ccc(N4CCOCC4)c(-n4cnnc4)c3)nc12,,
,> 10000,> 10000,N#Cc1cnn2c(NCCO)cc(Nc3cccc(-n4cnnc4)c3)nc12,,
,> 10000,> 10000,N#Cc1cnn2c(NC3CC3)cc(Nc3cccc(-c4cnccn4)c3)nc12,,
4,1000,79.4,N#Cc1cnn2c(Nc3ccn(CCN4CCOCC4)n3)cc(Nc3cccc(-n4cnnc4)c3)nc12,,
2.1,> 10000,79.4,CNCCn1ccc(Nc2cc(Nc3cccc(-n4cnnc4)c3)nc3c(C#N)cnn23)n1,,
,631,39.8,Cc1nncn1-c1cccc(Nc2cc(NC3CC3)n3ncc(C#N)c3n2)c1,,
,398,39.8,C[S+]([O-])Cc1cccc(Nc2cc(NC3CC3)n3ncc(C#N)c3n2)c1 (stereo not given),,
44,2510,251,N#Cc1cnn2c(NC3CC3)cc(Nc3ccc(N4CC[C@@H](N)C4)c(-n4cnnc4)c3)nc12,,
,> 10000,794,CC(C)(C#N)c1cccc(Nc2cc(NC3CC3)n3ncc(C#N)c3n2)c1,,
4.2,> 10000,5010,N#Cc1cnn2c(Nc3cn(CCN4CCOCC4)cn3)cc(Nc3cccc(-n4cnnc4)c3)nc12,,
,3160,501,N#Cc1cnn2c(NC3CC3)cc(Nc3cccc(-n4ccnn4)c3)nc12,,
,> 10000,> 10000,Cn1cnnc1-c1cccc(Nc2cc(NC3CC3)n3ncc(C#N)c3n2)c1,,
,> 10000,200,N#Cc1cnn2c(NC3CC3)cc(Nc3cccc(-n4ncnn4)c3)nc12,,
,158,50.1,CS(=O)(=O)Cc1cccc(Nc2cc(NC3CC3)n3ncc(C#N)c3n2)c1,,
,> 10000,50.1,N#Cc1cnn2c(NC3CC3)cc(Nc3cccc(-c4ncns4)c3)nc12,,
,> 10000,251,N#Cc1cnn2c(NC3COC3)cc(Nc3cccc(-n4cnnc4)c3)nc12,,
,> 10000,398,N#Cc1cnn2c(NC3CC(F)(F)C3)cc(Nc3cccc(-n4cnnc4)c3)nc12,,
47,631,126,N#Cc1cnn2c(NC3CC3)cc(Nc3ccc(N4CCC[C@H](N)C4)c(-n4cnnc4)c3)nc12,,
,2510,> 10000,N#Cc1cnn2c(NC3CC3)cc(Nc3cccc(-c4nn[nH]n4)c3)nc12,,
,> 10000,5010,N#Cc1cnn2c(NC3CC3)cc(Nc3cccc(-c4ccccn4)c3)nc12,,
39,1580,501,CCN(CCN)c1cc(F)c(Nc2cc(NC3CC3)n3ncc(C#N)c3n2)cc1-n1cnnc1,,

Kinetic_solubility [1] [µg/mL],IC50 (Murine hepatitis virus) [nM],IC50 [2] [nM],Structure (SMILES),Activity [3] [%],Activity [4] [%]
41,2510,1000,CN(CCN)c1cc(F)c(Nc2cc(NC3CC3)n3ncc(C#N)c3n2)cc1-n1cnnc1,,
,> 10000,31.6,Cc1nccn1-c1cccc(Nc2cc(NC3CC3)n3ncc(C#N)c3n2)c1,,
,2510,794,N#Cc1cnn2c(NC3CC3)cc(Nc3cccc(-c4nccs4)c3)nc12,,
,1580,158,CN[C@@H]1CCCN(c2cc(F)c(Nc3cc(NC4CC4)n4ncc(C#N)c4n3)cc2-n2cnnc2)C1,,
21,5010,31.6,CN(C)CCn1ccc(Nc2cc(Nc3cccc(-n4cnnc4)c3)nc3c(C#N)cnn23)n1,,
16,1000,126,CNCCN(C)c1ccc(Nc2cc(NC3CC3)n3ncc(C#N)c3n2)cc1-n1cnnc1,,
,794,126,CS(=O)(=O)Nc1cccc(Nc2cc(NC3CC3)n3ncc(C#N)c3n2)c1,,
,7940,631,CP(C)(=O)Cc1cccc(Nc2cc(NC3CC3)n3ncc(C#N)c3n2)c1,,
56,2000,126,CN[C@H]1CCCN(c2ccc(Nc3cc(NC4CC4)n4ncc(C#N)c4n3)cc2-n2cnnc2)C1,,
,> 10000,> 10000,N#Cc1cnn2c(NC3CC3)cc(Nc3cccc(C(=O)O)c3)nc12,,
,> 10000,> 10000,Cn1cc(CNc2cc(Nc3cccc(-n4cnnc4)c3)nc3c(C#N)cnn23)cn1,,
0.2,5010,158,CN1CCN(c2ccc(Nc3cc(NC4CC4)n4ncc(C#N)c4n3)cc2-n2cnnc2)CC1,,
,> 10000,> 10000,N#Cc1cnn2c(NC3CC3)cc(Nc3cccc(-n4cc[nH]c4=O)c3)nc12,,
37,> 10000,200,N#Cc1cnn2c(Nc3cn(CCN4CCCC4)cn3)cc(Nc3cccc(-n4cnnc4)c3)nc12,,
30,> 10000,501,CN(C)CCn1cnc(Nc2cc(Nc3cccc(-n4cnnc4)c3)nc3c(C#N)cnn23)c1,,
,7940,398,CC(C)(O)Cc1cccc(Nc2cc(NC3CC3)n3ncc(C#N)c3n2)c1,,
,10000,50.1,CN(CCN1CCCC1)c1ccc(Nc2cc(NC3CC3)n3ncc(C#N)c3n2)cc1-n1cnnc1,,
37,2000,251,N#Cc1cnn2c(NC3CC3)cc(Nc3cc(-n4cnnc4)c(N4CC[C@H](N)C4)cc3F)nc12,,
,> 10000,> 10000,CC(=O)N1CCC(Nc2cc(Nc3cccc(-n4cnnc4)c3)nc3c(C#N)cnn23)CC1,,
,7940,631,N#Cc1cnn2c(NC3CC3)cc(Nc3cccc(CCO)c3)nc12,,
2.8,158,,CC(=O)Nc1cccc(Nc2cc(NC3CC3)n3ncc(C#N)c3n2)c1,,
,> 10000,5.01,N#Cc1cnn2c(NC3CC3)cc(Nc3cccc(-n4cnnn4)c3)nc12,,
,10000,631,N#Cc1cnn2c(NC3CC3)cc(Nc3cccc(-c4nnco4)c3)nc12,,
63,3160,794,CN[C@@H]1CCCN(c2ccc(Nc3cc(NC4CC4)n4ncc(C#N)c4n3)cc2-n2cnnc2)C1,,
,≥ 10000,,CS(=N)(=O)Cc1cccc(Nc2cc(NC3CC3)n3ncc(C#N)c3n2)c1 (stereo not given),,
,> 10000,3980,N#Cc1cnn2c(NC3CC3)cc(Nc3cccc(Cn4cnnc4)c3)nc12,,
25,631,79.4,CN(CCN1CCOCC1)c1ccc(Nc2cc(NC3CC3)n3ncc(C#N)c3n2)cc1-n1cnnc1,,

Structure (SMILES),Kinetic_solubility [1] [µg/mL],IC50 (Murine hepatitis virus) [nM],IC50 [2] [nM],Activity [3] [%],Activity [4] [%]
N#Cc1cnn2c(NC3CC3)cc(Nc3cc(-n4cnnc4)ccn3)nc12,1.2,158,10,96,
N#Cc1cnn2c(NC3CC3)cc(Nc3ccc(F)c(-n4cnnc4)c3)nc12,0.3,316,5.01,99,99
N#Cc1cnn2c(NC3CC3)cc(Nc3cc(-n4cnnc4)ccc3F)nc12,1.5,6.31,3.16,59,86
C[C@H](N)CN(C)c1ccc(Nc2cc(NC3CC3)n3ncc(C#N)c3n2)cc1-n1cnnc1,50,200,316,76,93
CCN(CC)CCN(C)c1ccc(Nc2cc(NC3CC3)n3ncc(C#N)c3n2)cc1-n1cnnc1,60,794,100,100,98
N#Cc1cnn2c(NC3CC3)cc(Nc3cccc(-c4cnn[nH]4)c3)nc12,,79.4,10,85,100
C[C@@H](N)CN(C)c1ccc(Nc2cc(NC3CC3)n3ncc(C#N)c3n2)cc1-n1cnnc1,62,501,251,91,95
N#Cc1cnn2c(NC3CC3)cc(Nc3ccc(N4CC[C@H](N)C4)c(-n4cnnc4)c3)nc12,49,398,158,85,
N#Cc1cnn2c(NC3CCC3)cc(Nc3cccc(-n4cnnc4)c3)nc12,0.18,79.4,7.94,93,
